Blank lines part the entries; values can stand above or below the molecule they belong to.
Assays:
protein kinase C (PKCa) = protein kinase C (PKCa) (Homo sapiens, UniProt P17252); experiment: Panel of protein kinases: PKCa; assay type: biochemical; conditions: method of Davies et al.
Experimental: (§1) The compounds of the present invention were screened against a large panel of protein kinase to determine inhibition activity for CDK as against a variety of protein kinases. The assay was conducted using methods and materials described by Davies, S et al. Specificity and Mechanism of Action of Some Commonly Used Protein Kinase Inhibitors, Biochem J. 351, 95–105 (2000), the contents of which are herein incorporated by reference. The compounds were screened against a panel of protein kinases which include AMP-activiated protein kinase (AMPK), checkpoint kinase (CHK1), casein kinases 1 and 2 (CK1 and CK2), cytoplasmic tyrosine kinase (CSK), dual serine/threonine/tyrosine kinase (DYRK1A), glycogen synthase kinase 3 (GSK3B), c-Jun N-terminal kinase (JNK), lymphocyte kinase (LCK), mitogen-activated protein kinases 2, K-1a, K2 (MAPK2, MAPKAP-K1a, and MAPKAP-K2), MAPK kinase (MKK1, also called MEK), mitogen and stress-activated protein kinase 1 (MSK1), never-in-mitosis kinase 6 (NEK6), p70 ribosomal protein S6 kinase (P70s6K1), 3-phosphoinositide-dependent protein kinase 1 (PDK1), phosphorylase kinase (PHK), protein kinase A (PKA), protein kinase B (PKB, also called Akt), protein kinase C (PKCa), p38-regulated/activated kinase (PRAK), Rho-dependent protein kinase (ROCK-II), stress-activated protein kinase 2a, 2b, 3 and 4 (SAPK-2A or p38, SAPK-2b or p38β2, SAPK3 or p38γ, SAPK4 or p38δ, respectively), and serum- and glucocorticoid-induced kinase (SGK). Compound activity was grouped into categories of weak (<50%), moderate (50–75%) and strong inhibition (>75%).

[1] = biological target: glycogen synthase kinase 3 (GSK3B) (Homo sapiens, UniProt P49841); experiment: Panel of protein kinases: GSK3B; assay type: biochemical; conditions: method of Davies et al.
Experimental: as §1

[2] = biological target: stress-activated protein kinase 2b (SAPK-2b or p38β2) (Homo sapiens, UniProt Q15759); experiment: Panel of protein kinases: SAPK-2b; assay type: biochemical; conditions: method of Davies et al.
Experimental: as §1

CDK2/A = CDK2/A (Homo sapiens, UniProt P24941); experiment: Panel of protein kinases: CDK2/A; assay type: biochemical; conditions: method of Davies et al.
Experimental: as §1

[3] = biological target: dual serine/threonine/tyrosine kinase (DYRK1A) (Homo sapiens, UniProt Q13627); experiment: Panel of protein kinases: DYRK1A; assay type: biochemical; conditions: method of Davies et al.
Experimental: as §1

lymphocyte kinase (LCK) = lymphocyte kinase (LCK) (Homo sapiens, UniProt P06239); experiment: Panel of protein kinases: LCK; assay type: biochemical; conditions: method of Davies et al.
Experimental: as §1

[4] = biological target: T1, stress-activated protein kinase 3 (SAPK3 or p38γ) (Homo sapiens, UniProt P53778); experiment: Panel of protein kinases: SAPK3; assay type: biochemical; conditions: method of Davies et al.
T1 sequence (P53778 1-367): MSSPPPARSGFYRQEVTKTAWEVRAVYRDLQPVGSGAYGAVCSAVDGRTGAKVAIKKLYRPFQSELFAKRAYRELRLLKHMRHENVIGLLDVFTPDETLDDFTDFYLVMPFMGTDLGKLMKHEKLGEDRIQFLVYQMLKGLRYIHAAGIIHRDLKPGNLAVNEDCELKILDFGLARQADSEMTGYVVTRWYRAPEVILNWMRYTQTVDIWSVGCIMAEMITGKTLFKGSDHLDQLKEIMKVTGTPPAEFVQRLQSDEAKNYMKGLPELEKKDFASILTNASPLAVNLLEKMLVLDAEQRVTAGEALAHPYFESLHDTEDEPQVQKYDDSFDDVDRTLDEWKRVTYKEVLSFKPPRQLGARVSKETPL
Experimental: as §1

[5] = biological target: phosphorylase kinase (PHK) (Oryctolagus cuniculus, UniProt P00518); experiment: Panel of protein kinases: PHK; assay type: biochemical; conditions: method of Davies et al.
Experimental: as §1

[6] = biological target: T2, serum- and glucocorticoid-induced kinase (SGK) (Homo sapiens, UniProt O00141, S422D); experiment: Panel of protein kinases: SGK; assay type: biochemical; conditions: method of Davies et al.
T2 sequence (O00141 61-431 S422D limits assumed): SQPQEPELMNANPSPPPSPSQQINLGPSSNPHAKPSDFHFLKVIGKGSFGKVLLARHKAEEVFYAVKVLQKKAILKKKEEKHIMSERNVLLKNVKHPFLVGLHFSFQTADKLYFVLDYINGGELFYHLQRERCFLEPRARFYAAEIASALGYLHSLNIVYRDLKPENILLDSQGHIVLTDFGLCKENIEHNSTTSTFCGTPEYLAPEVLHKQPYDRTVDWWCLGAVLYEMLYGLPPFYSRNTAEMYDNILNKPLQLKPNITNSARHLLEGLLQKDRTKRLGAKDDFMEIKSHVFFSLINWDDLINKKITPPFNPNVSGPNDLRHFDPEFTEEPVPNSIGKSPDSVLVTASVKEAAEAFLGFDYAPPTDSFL
Experimental: as §1

[7] = biological target: never-in-mitosis kinase 6 (NEK6) (Homo sapiens, UniProt Q9HC98); experiment: Panel of protein kinases: NEK6; assay type: biochemical; conditions: method of Davies et al.
Experimental: as §1

HCT 116 cell line = experiment: Inhibition of cell growth, MTT tetrazolium salt assay; assay type: cell-based; conditions: Homo sapiens, 50% inhibition of growth
Experimental: Inhibition of cell growth was measured using the tetrazolium salt assay, which is based on the ability of viable cells to reduce 3-(4,5-dimethylthiazol-2-yl)-2,5-[2H]-diphenyltetrazolium bromide (MTT) to formazan (Mossman, Journal of Immunological Methods, vol. 65 (1983), pp. 55–58). The water-insoluble purple formazan product was then detected spectrophotometrically. The HCT 116 cell line was grown in 96-well plates. Cells were plated in the appropriate medium at a volume of 135 μl/well in McCoy's 5A Medium. Plates were incubated for four hours before addition of inhibitor compounds. Different concentrations of inhibitor compounds were added in 0.5% (v/v) dimethylsulfoxide (15 μL/well), and cells were incubated at 37° C. (5% CO2) for four to six days (depending on cell type). At the end of the incubation, MTT was added to a final concentration of 0.2 mg/mL, and cells were incubated for 4 hours more at 37° C. After centrifugation of the plates and removal of medium, the absorbance of the formazan (solubilized in dimethylsulfoxide) was measured at 540 nm. The concentration of inhibitor compound causing 50% inhibition of growth was determined from the linear portion of a semi-log plot of inhibitor concentration versus percentage inhibition. All results were compared to control cells treated only with 0.5% (v/v) dimethylsulfoxide.

Chain of glycogen synthase kinase 3 (GSK3B) (P49841 whole entry, species assumed): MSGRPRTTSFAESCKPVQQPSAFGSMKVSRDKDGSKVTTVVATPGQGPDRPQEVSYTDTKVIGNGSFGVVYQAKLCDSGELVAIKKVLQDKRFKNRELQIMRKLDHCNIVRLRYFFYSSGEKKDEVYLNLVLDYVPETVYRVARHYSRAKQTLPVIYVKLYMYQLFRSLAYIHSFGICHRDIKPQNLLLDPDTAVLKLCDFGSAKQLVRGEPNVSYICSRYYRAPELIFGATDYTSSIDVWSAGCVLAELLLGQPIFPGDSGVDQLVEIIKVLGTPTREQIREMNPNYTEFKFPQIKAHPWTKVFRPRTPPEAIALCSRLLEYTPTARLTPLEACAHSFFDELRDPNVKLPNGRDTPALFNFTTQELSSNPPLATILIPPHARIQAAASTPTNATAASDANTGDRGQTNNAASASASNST
Chain of lymphocyte kinase (LCK) (P06239 whole entry, species assumed): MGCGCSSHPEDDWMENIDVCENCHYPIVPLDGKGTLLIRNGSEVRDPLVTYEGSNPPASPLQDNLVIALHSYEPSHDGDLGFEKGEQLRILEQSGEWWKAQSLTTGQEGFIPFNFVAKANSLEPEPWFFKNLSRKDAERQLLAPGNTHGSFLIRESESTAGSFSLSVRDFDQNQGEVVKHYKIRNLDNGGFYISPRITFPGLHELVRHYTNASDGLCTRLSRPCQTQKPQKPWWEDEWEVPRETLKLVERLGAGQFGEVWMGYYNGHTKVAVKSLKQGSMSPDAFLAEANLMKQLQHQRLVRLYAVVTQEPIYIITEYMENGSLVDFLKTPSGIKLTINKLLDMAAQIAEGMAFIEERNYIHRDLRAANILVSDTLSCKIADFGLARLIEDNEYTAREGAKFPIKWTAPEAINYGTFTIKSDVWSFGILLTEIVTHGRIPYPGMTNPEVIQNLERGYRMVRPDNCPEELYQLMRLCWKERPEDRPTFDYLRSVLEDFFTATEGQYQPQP
Chain of never-in-mitosis kinase 6 (NEK6) (Q9HC98 whole entry, species assumed): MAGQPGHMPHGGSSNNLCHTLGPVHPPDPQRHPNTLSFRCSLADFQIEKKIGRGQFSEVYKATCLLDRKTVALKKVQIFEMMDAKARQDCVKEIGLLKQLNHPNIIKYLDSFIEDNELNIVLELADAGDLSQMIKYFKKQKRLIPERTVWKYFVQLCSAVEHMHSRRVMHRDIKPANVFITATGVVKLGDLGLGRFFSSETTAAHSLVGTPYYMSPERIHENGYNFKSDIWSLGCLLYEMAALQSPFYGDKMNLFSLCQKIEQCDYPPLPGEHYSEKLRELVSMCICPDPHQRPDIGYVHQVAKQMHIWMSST
Chain of stress-activated protein kinase 2b (SAPK-2b or p38β2) (Q15759 whole entry): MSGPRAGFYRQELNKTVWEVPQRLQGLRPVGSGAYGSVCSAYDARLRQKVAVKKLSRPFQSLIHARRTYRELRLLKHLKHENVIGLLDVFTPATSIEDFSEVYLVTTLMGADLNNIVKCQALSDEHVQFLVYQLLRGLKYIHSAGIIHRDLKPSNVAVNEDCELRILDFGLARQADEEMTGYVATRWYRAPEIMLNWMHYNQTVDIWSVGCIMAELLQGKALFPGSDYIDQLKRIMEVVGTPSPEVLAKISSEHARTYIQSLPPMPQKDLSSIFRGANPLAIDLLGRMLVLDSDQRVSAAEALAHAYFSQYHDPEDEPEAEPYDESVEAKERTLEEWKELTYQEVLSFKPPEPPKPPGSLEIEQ

SMILES: CCNCc1cncc(-c2ccc3[nH]nc(-c4nc5ccccc5[nH]4)c3c2)c1C [A]
- Kinase PKCa inhibition (protein kinase C (PKCa)): + (Moderate inhibition 50–75%)
- Kinase GSK3B inhibition [1]: ++ (Strong inhibition >75%)
- Kinase SAPK-2b inhibition [2]: − (Weak inhibition <50%)
- Kinase CDK2/A inhibition (CDK2/A): ++ (Strong inhibition >75%)
- Kinase DYRK1A inhibition [3]: ++ (Strong inhibition >75%)
- Kinase LCK inhibition (lymphocyte kinase (LCK)): ++ (Strong inhibition >75%)
- Kinase SAPK3 inhibition [4]: − (Weak inhibition <50%)
- Kinase PHK inhibition [5]: ++ (Strong inhibition >75%)
- Kinase SGK inhibition [6]: + (Moderate inhibition 50–75%)
- Kinase NEK6 inhibition [7]: − (Weak inhibition <50%)
- IC50 (HCT 116 cell line): 70 nM

SMILES: CCNCc1cncc(-c2ccc3[nH]nc(-c4nc5c(C(=O)NC)cccc5[nH]4)c3c2)c1C [B]
- Kinase PKCa inhibition (protein kinase C (PKCa)): ++ (Strong inhibition >75%)
- Kinase GSK3B inhibition [1]: ++ (Strong inhibition >75%)
- Kinase SAPK-2b inhibition [2]: − (Weak inhibition <50%)
- Kinase CDK2/A inhibition (CDK2/A): ++ (Strong inhibition >75%)
- Kinase DYRK1A inhibition [3]: ++ (Strong inhibition >75%)
- Kinase LCK inhibition (lymphocyte kinase (LCK)): ++ (Strong inhibition >75%)
- Kinase SAPK3 inhibition [4]: − (Weak inhibition <50%)
- Kinase PHK inhibition [5]: + (Moderate inhibition 50–75%)
- Kinase SGK inhibition [6]: + (Moderate inhibition 50–75%)
- Kinase NEK6 inhibition [7]: − (Weak inhibition <50%)
- IC50 (HCT 116 cell line): 90 nM

SMILES: CCNCc1cncc(-c2ccc3[nH]nc(-c4nc5c(SC)cccc5[nH]4)c3c2)c1C [C]
- Kinase PKCa inhibition (protein kinase C (PKCa)): + (Moderate inhibition 50–75%)
- Kinase GSK3B inhibition [1]: ++ (Strong inhibition >75%)
- Kinase SAPK-2b inhibition [2]: − (Weak inhibition <50%)
- Kinase CDK2/A inhibition (CDK2/A): ++ (Strong inhibition >75%)
- Kinase DYRK1A inhibition [3]: ++ (Strong inhibition >75%)
- Kinase LCK inhibition (lymphocyte kinase (LCK)): + (Moderate inhibition 50–75%)
- Kinase SAPK3 inhibition [4]: − (Weak inhibition <50%)
- Kinase PHK inhibition [5]: + (Moderate inhibition 50–75%)
- Kinase SGK inhibition [6]: − (Weak inhibition <50%)
- Kinase NEK6 inhibition [7]: − (Weak inhibition <50%)
- IC50 (HCT 116 cell line): 86 nM

SMILES: CCNCc1cncc(-c2ccc3[nH]nc(-c4nc5c(NC(C)=O)cccc5[nH]4)c3c2)c1C [D]
- Kinase PKCa inhibition (protein kinase C (PKCa)): − (Weak inhibition <50%)
- Kinase GSK3B inhibition [1]: ++ (Strong inhibition >75%)
- Kinase SAPK-2b inhibition [2]: − (Weak inhibition <50%)
- Kinase CDK2/A inhibition (CDK2/A): ++ (Strong inhibition >75%)
- Kinase DYRK1A inhibition [3]: ++ (Strong inhibition >75%)
- Kinase LCK inhibition (lymphocyte kinase (LCK)): − (Weak inhibition <50%)
- Kinase SAPK3 inhibition [4]: − (Weak inhibition <50%)
- Kinase PHK inhibition [5]: − (Weak inhibition <50%)
- Kinase SGK inhibition [6]: − (Weak inhibition <50%)
- Kinase NEK6 inhibition [7]: − (Weak inhibition <50%)
- IC50 (HCT 116 cell line): > 500 nM

SMILES: CCNCc1cncc(-c2ccc3[nH]nc(-c4nc5c(F)cc(F)cc5[nH]4)c3c2)c1C [Example 1, {5-[3-(4,6-Difluoro-1H-benzoimidazol-2-yl)-1H-indazol-5-yl]-4-methyl-pyridin-3-ylmethyl}-ethyl-amine]
- Kinase PKCa inhibition (protein kinase C (PKCa)): − (Weak inhibition <50%)
- Kinase GSK3B inhibition [1]: ++ (Strong inhibition >75%)
- Kinase SAPK-2b inhibition [2]: − (Weak inhibition <50%)
- Kinase CDK2/A inhibition (CDK2/A): ++ (Strong inhibition >75%)
- Kinase DYRK1A inhibition [3]: ++ (Strong inhibition >75%)
- Kinase LCK inhibition (lymphocyte kinase (LCK)): + (Moderate inhibition 50–75%)
- Kinase SAPK3 inhibition [4]: − (Weak inhibition <50%)
- Kinase PHK inhibition [5]: + (Moderate inhibition 50–75%)
- Kinase SGK inhibition [6]: − (Weak inhibition <50%)
- Kinase NEK6 inhibition [7]: − (Weak inhibition <50%)
- IC50 (HCT 116 cell line): 120 nM

- Kinase PKCa inhibition (protein kinase C (PKCa)): − (Weak inhibition <50%)
- Kinase GSK3B inhibition [1]: ++ (Strong inhibition >75%)
- Kinase SAPK-2b inhibition [2]: − (Weak inhibition <50%)
- Kinase CDK2/A inhibition (CDK2/A): ++ (Strong inhibition >75%)
- Kinase DYRK1A inhibition [3]: ++ (Strong inhibition >75%)
- Kinase LCK inhibition (lymphocyte kinase (LCK)): + (Moderate inhibition 50–75%)
- Kinase SAPK3 inhibition [4]: − (Weak inhibition <50%)
- Kinase PHK inhibition [5]: ++ (Strong inhibition >75%)
- Kinase SGK inhibition [6]: − (Weak inhibition <50%)
- Kinase NEK6 inhibition [7]: − (Weak inhibition <50%)
- IC50 (HCT 116 cell line): 22 nM
SMILES: CCNCc1cncc(-c2ccc3[nH]nc(-c4nc5cc(F)ccc5[nH]4)c3c2)c1C [Example 2, Ethyl-{5-[3-(5-fluoro-1H-benzoimidazol-2-yl)-1H-indazol-5-yl]-4-methyl-pyridin-3-ylmethyl}-amine]
